Assay results from publication PMC6469168, “Localization of ^99mTc-GRP Analogs in GRPR-Expressing Tumors: Effects of Peptide Length and Neprilysin Inhibition on Biological Responses” (Pharmaceuticals, 2019).
Read-outs that look alike come from different tables or passages of the source. Where no end group is shown, it is not given here. The star is where a group is joined. DOTA = O=C(O)CN1CCN(CC(=O)O)CCN(CC(=O)*)CCN(CC(=O)O)CC1; N4 = tetraamine chelator for 99mTc

Key:
[1] = target: T1, GRPR-sites on PC-3 cell membranes (Homo sapiens, UniProt P30550); assay: Competition binding against [^125I-Tyr^4]BBN in PC-3 cell membranes; settings: 1 h at 22 °C, 50 pM radioligand, triplicates per concentration, read-out: IC50, [^125I-Tyr^4]BBN displacement from GRPR-sites
T1 construct: PC-3 cells endogenously expressing the human GRPR; host or cells: PC-3 cell-membrane homogenates
Experimental: Moreover, coupling of the positively charged acyclic tetraamine unit in the N-terminus of parent GRP(14/18–27) references improved the affinity of resulting analogs to the GRPR, as previously reported for similarly modified peptide analogs.
(b) GRPR-specific internalization of ^99mTc-N4-GRP(14–27) (red solid line) and ^99mTc-N4-GRP(18–27) (blue solid line) in PC-3 cells during incubation at 37 °C at 15, 30, 60, and 120 min. Results represent average of cell internalized activity ± sd, n = 3; data is corrected for nonspecific internalization in the presence of 1 µM [Tyr^4]BBN.
Competition binding experiments against [^125I-Tyr^4] […] For the assay, triplicates per concentration point (concentration range: 10^−13–10^−6 M) of each test peptide were incubated together with the radioligand (~40,000 cpm per assay tube at a 50 pM concentration) in PC-3 cell-membrane homogenates in a total volume of 300 μL binding buffer (BB, 50 mM HEPES pH 7.4, 1% BSA, 5.5 mM MgCl2, 35 μM bacitracin) for 1 h at 22 °C in an Incubator-Orbital Shaker (MPM Instr. SrI, Bernareggio, Italy). Binding was interrupted by ice-cold washing buffer (WB, 10 mM HEPES pH 7.4, 150 mM NaCl) and rapid filtration (Whatman GF/B filters presoaked in BB) on a Brandel Cell Harvester (Adi Hassel Ing. Büro, Munich, Germany). Filters were washed with ice-cold WB and counted in an automatic well-type gamma counter (NaI(Tl) 3′-crystal, Cobra Packard Auto-Gamma 5000 series instrument). The IC50 values were calculated using nonlinear regression according to a one-site model applying the PRISM 2 program (Graph Pad Software, San Diego, CA, USA).

[2] = target: T2, BB3R in human lung (bronchial) carcinoids (Homo sapiens, UniProt P32247); assay: Receptor autoradiography competition binding vs ^125I-[DTyr^6,βAla^11,Phe^13,Nle^14]BBN(6–14) in human tumor sections; settings: human lung (bronchial) carcinoid sections, same universal radioligand, mean ± SEM, n in parentheses, read-out: IC50s in nM, BB3R
T2 construct: from tissue; host or cells: human bronchial carcinoid cryostat sections
T2 sequence (P32247 1-399): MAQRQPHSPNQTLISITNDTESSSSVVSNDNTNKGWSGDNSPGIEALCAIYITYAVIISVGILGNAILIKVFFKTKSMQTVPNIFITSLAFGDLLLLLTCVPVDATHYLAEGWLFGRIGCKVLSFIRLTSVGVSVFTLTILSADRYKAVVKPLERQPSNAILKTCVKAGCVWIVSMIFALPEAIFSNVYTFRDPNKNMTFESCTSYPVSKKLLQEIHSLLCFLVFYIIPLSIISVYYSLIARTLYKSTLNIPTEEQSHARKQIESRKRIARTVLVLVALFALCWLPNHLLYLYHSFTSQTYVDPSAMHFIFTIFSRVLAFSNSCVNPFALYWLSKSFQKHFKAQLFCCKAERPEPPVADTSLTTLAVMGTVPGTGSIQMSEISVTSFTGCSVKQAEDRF
Source text: IC50 values are given in nM ± SEM.

PC-3 cells = assay: Internalization assay in PC-3 cells; type: cell-based, human; settings: 37 °C, corrected for nonspecific (1 µM [Tyr^4]BBN), average ± sd, n = 3
Experimental: In both cases the bulk of cell-associated radioactivity was found in the cells with ^99mTc-N4-GRP(14–27) internalizing much faster in PC-3 cells compared to ^99mTc-N4-GRP(18–27) at all time intervals (Figure 3b).
The internalization rates of ^99mTc-N4-GRP(14–27) and ^99mTc-N4-GRP(18–27) were compared in PC-3 cells. Briefly, PC-3 cells were seeded in six-well plates (~1 × 10^6 cells per well) 24 h before the experiment. Approximately 50,000 cpm of either ^99mTc-N4-GRP(14–27) or ^99mTc-N4-GRP(18–27) (corresponding to 250 fmol total peptide in 150 μL of 0.5% BSA/PBS) was added alone (total) or in the presence of 1 μM [Tyr^4]BBN (nonspecific). Cells were incubated at 37 °C for 15, 30, 60, and 120 min and incubation was interrupted each time by placing the plates on ice, removing the supernatants and rapid rinsing with ice-cold 0.5% BSA/PBS. Cells were then treated 2 × 5 min with acid wash buffer (2 × 0.6 mL, 50 mM glycine buffer pH 2.8, 0.1 M NaCl) at room temperature and supernatants were collected (membrane-bound fraction). After rinsing with 1 mL chilled 0.5% BSA/PBS, cells were lysed by treatment with 1 N NaOH (2 × 0.6 mL) and lysates were collected (internalized fraction). Sample radioactivity was measured in the γ-counter and percent internalized radioactivity was determined vs. total added activity. Results represent the average values ± sd of three experiments performed in triplicate.

GRPR = settings: DOTA-derivatized analogs; read-out: IC50, GRPR binding affinity; cited from earlier work
Source text: It is interesting to note that the presence of the positively charged N4^+x-moiety at positions 13 and 17 of the native GRP chain occupy the two basic amino acids Lys^13 and Arg^17.

[3] = target: T3, NMBR in human ileal carcinoids (Homo sapiens, UniProt P28336); settings: receptor autoradiography, human ileal carcinoid sections; mean, n = 2; read-out: IC50s in nM, NMBR; cited from earlier work
T3 construct: from tissue; host or cells: human ileal carcinoid cryostat sections
Source text: (§1) Table 1 Affinities for the three human bombesin receptor subtypes. | column: IC50s in nM / NMBR ^2 || The selective affinities of N4-GRP(14–27) for each of the three bombesin receptor subtypes found in mammals were studied during in vitro competition binding assays against the universal radioligand ^125I-[DTyr^6,βAla^11,Phe^13,Nle^14]BBN(6–14). Receptor autoradiography was applied in cryostat sections of well characterized human cancers, preferentially expressing one of the subtypes.

[4] = target: T4, GRPR expressed in human prostate cancer (Homo sapiens, UniProt P30550); settings: receptor autoradiography, human prostate cancer sections; mean, n = 2; read-out: IC50s in nM, GRPR; cited from earlier work
T4 construct: from tissue; host or cells: human prostate carcinoma cryostat sections
Source text: as §1, with “GRPR ^1” for “NMBR ^2”

[5] = target: T2, BB3R in human lung (bronchial) carcinoids; settings: receptor autoradiography, human lung carcinoid sections; read-out: IC50s in nM, BB3R; cited from earlier work
Source text: Receptor autoradiography was applied in cryostat sections of well characterized human cancers, preferentially expressing one of the subtypes.

T1 sequence (P30550 whole entry): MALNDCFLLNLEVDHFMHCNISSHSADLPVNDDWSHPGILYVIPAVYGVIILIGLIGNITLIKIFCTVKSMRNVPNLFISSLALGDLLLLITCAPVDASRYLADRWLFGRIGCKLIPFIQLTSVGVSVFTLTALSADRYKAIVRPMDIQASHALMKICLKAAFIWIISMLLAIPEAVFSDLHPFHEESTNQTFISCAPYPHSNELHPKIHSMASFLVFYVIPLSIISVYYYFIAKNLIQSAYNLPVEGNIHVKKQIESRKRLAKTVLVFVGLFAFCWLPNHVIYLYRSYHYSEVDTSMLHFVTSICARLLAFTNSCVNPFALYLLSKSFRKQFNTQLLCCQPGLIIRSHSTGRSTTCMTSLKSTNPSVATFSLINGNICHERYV
T3 sequence (P28336 whole entry): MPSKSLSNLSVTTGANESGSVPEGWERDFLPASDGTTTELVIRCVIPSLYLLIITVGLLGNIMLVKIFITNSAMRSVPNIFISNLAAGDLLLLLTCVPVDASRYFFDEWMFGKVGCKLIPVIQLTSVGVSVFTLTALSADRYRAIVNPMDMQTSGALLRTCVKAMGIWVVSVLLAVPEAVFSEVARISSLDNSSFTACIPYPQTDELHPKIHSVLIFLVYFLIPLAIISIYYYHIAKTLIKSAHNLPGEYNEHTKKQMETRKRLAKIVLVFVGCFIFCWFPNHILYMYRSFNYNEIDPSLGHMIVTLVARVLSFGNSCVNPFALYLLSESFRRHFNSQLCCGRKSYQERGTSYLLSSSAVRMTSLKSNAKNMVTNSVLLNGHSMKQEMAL
T4 sequence (P30550 whole entry): as the sequence (P30550 whole entry) above

Which IC50 [1] does the source give for `CSCC[C@H](NC(=O)[C@H](CC(C)C)NC(=O)[C@H](Cc1c[nH]cn1)NC(=O)CNC(=O)[C@@H](NC(=O)[C@H](C)NC(=O)[C@H](Cc1c[nH]c2ccccc12)NC(=O)[C@H](Cc1c[nH]cn1)NC(=O)[C@H](CC(N)=O)NC(=O)CNC(=O)[C@H](CCCNC(=N)N)NC(=O)[C@@H]1CCCN1C(=O)[C@H](Cc1ccc(O)cc1)NC(=O)[C@H](CCSC)NC(=O)C(CNCCN)CNCCN)C(C)C)C(N)=O` [N4-GRP(14–27)] here?
The IC50 was 0.32 ± 0.03 nM.

And the IC50 [2]?
The IC50 was over 1000 nM.

What does the source list for “^99mTc-N4-GRP(14–27): ^99mTc-labeled N4-GRP(14–27) radioligand (N4-MYPRGNHWAVGHLM-NH2; ends and bridges not checked; also: 99mTc complex at N4; UniProt P07492 37-50, looked up, fragment)”?
specifically internalized, % of total added activity (PC-3 cells; 1 h): 12.7 ± 0.7%; specifically internalized, % of total added activity (PC-3 cells; 2 h): 19.5 ± 1.4%

What does the source list for “^99mTc-N4-GRP(18–27): ^99mTc-labeled N4-GRP(18–27) radioligand (N4-GNHWAVGHLM-NH2; ends and bridges not checked; also: 99mTc complex at N4; UniProt P07492 41-50, looked up, fragment)”?
specifically internalized, % of total added activity (PC-3 cells; 1 h): 5.0 ± 0.3%; specifically internalized, % of total added activity (PC-3 cells; 2 h): 6.9 ± 1.5%

Which IC50 [1] does the source give for `CSCC[C@H](NC(=O)[C@H](CC(C)C)NC(=O)[C@H](Cc1cnc[nH]1)NC(=O)CNC(=O)[C@@H](NC(=O)[C@H](C)NC(=O)[C@H](Cc1c[nH]c2ccccc12)NC(=O)[C@H](Cc1cnc[nH]1)NC(=O)[C@H](CC(N)=O)NC(=O)CN)C(C)C)C(N)=O` [GRP(18–27), H-Gly-Asn-His-Trp-Ala- Val-Gly-His-Leu-Met-NH2] here?
The IC50 was 1.66 ± 0.2 nM.

Which IC50 (GRPR) does the source give for “DOTA-GRP(14–27): GRP(14–27) coupled to DOTA, previously reported ({DOTA}-MYPRGNHWAVGHLM-NH2; ends and bridges not checked; UniProt P07492 37-50, looked up, fragment)” here?
Its IC50 is 6.6 ± 0.9 nM.

For “DOTA-GRP(18–27): GRP(18–27) coupled to DOTA, previously reported”, which IC50 (GRPR) is on record?
The IC50 was 112 ± 16 nM.

Which IC50 [3] does the source give for “N4-[Pro^1,Tyr^4]BBN (PQRYGNQWAVGHLM; not fully specified (N-terminus); ends and bridges not checked) [Demobesin 3, tetraamine derivatized BBN-like analog]” here?
Its IC50 is 1.6 nM.

For `CSCC[C@H](NC(=O)[C@H](CC(C)C)NC(=O)[C@H](Cc1c[nH]cn1)NC(=O)CNC(=O)[C@@H](NC(=O)[C@H](C)NC(=O)[C@H](Cc1c[nH]c2ccccc12)NC(=O)[C@H](Cc1c[nH]cn1)NC(=O)[C@H](CC(N)=O)NC(=O)CNC(=O)C(CNCCN)CNCCN)C(C)C)C(N)=O` [N4-GRP(18–27)], which IC50 [1] is on record?
Its IC50 is 0.63 ± 0.06 nM.

Which results are given for “N4-[Pro^1,Tyr^4]BBN (PQRYGNQWAVGHLM) [Demobesin 3, tetraamine derivatized BBN-like analog]”?
IC50 [4]: 0.5 nM; IC50 [5]: > 100 nM

Which IC50 [1] does the source give for `CSCC[C@H](NC(=O)[C@H](CC(C)C)NC(=O)[C@H](Cc1c[nH]cn1)NC(=O)CNC(=O)[C@@H](NC(=O)[C@H](C)NC(=O)[C@H](Cc1c[nH]c2ccccc12)NC(=O)[C@H](Cc1c[nH]cn1)NC(=O)[C@H](CC(N)=O)NC(=O)CNC(=O)[C@H](CCCNC(=N)N)NC(=O)[C@@H]1CCCN1C(=O)[C@H](Cc1ccc(O)cc1)NC(=O)[C@@H](N)CCSC)C(C)C)C(N)=O` [GRP(14–27)] here?
The IC50 was 0.45 ± 0.02 nM.
